Experiment [1] deals with YAP-dependent transcription in SF268-MCAT_Luc_dox-i-shYAPLevy (Clone 13) cells. The experiment in a line: YAP reporter gene activity assay (MCAT-Luc), SF268. Format: cell-based. The settings on record: Homo sapiens, SF-268; SF268 MCAT_Luc, 24 hrs. A general note: Reporter assays use an easily measured gene product as a stand-in for the process of interest.
Experiment [2] has as its system YAP-dependent transcription in NCI-H2052 Tet-On shYAP_2371 pLenti6 MCAT_Luc cells. The experiment can be described thus: YAP reporter gene activity assay (MCAT-Luc), NCI-H2052. As to conditions: Homo sapiens, 24 hrs. It is filed as cell-based.
In experiment [3] the target is Avi-humanTEAD4^217-434 / Cy5 labeled humanYAP^60-100 (Homo sapiens (Human), UniProt Q15561). The experiment in a line: In-vitro biochemical TR-FRET assay (TEAD4/YAP). The settings on record: 1 h at room temperature. It is filed as binding. On the procedure:
N-terminus Cy5 labeled humanYAP^60-100 (20 nM) was then added to this preparation. Compounds were dissolved at 10 mM in 100% DMSO and serial dilutions were made in 100% DMSO. The diluted compound solutions were incubated in white 384-well plates (Greiner Bio-One) for 1 h at room temperature with the above described mix. The final DMSO concentration present in the assay was 1%. […] The IC50 values were estimated by fitting the data by nonlinear fit regression (GraphPad Prism).
A general note: Time-resolved FRET reads energy transfer from a long-lived donor to a nearby acceptor.

Experiment [4] has as its system SF268-MCAT_Luc_dox-i-shYAPLevy (Clone 13) cells. The experiment can be described thus: Proliferation assay (resazurin/AlamarBlue), SF268. Format: cell-based. As to conditions: Homo sapiens, SF-268; SF268, 72 hours. From the text: (§1) NCI-H2052 mesothelioma cells (RRID: CVCL_1518) bearing Hippo-pathway inactivating mutations upstream of YAP (homozygous deletion of LATS2 and mutation of NF2) were obtained from ATCC (American Type Culture Collection), while SF268 glioma cells (RRID: CVCL_1689) overexpressing YAP due to genomic amplification were obtained from the NCI (National Cancer Institute). MKN-45 gastric adenocarcinoma cells (RRID: CVCL_0434) genomically deleted for YAP were obtained from the JCRB (Japanese Collection of Research Bioresources) Cell Bank.
(§2) Stock solutions of compounds were prepared at a concentration of 10 mM in DMSO and stored at 4° C. Where necessary to afford a full dose-response curve, the stock solutions were pre-diluted in DMSO to 1′000-fold the desired reduced start concentration. On the day after cell seeding, eleven 2-fold serial dilutions of each compound were dispensed directly into the cell assay plates using a HP 300D non-contact Digital Dispenser (TECAN). The final concentration of DMSO was normalized to 0.1% in all wells.
(§3) After incubation for 72 hours at 37° C., compound-mediated modulation of cell viability was quantified as follows. […] To enable differentiation of cytotoxic from cytostatic compound effects, the number of viable cells on the day of compound addition (day 0) was assessed in a separate cell plate and used to assess the extent of cell viability suppression as described in the following section.
(§4) For data analysis, the assay background value determined in wells containing medium, but no cells, was subtracted from all data points.
(§5) The extent of growth inhibition and potential cell kill was assessed by comparing the resorufin levels in compound-treated cells with those present at the time of compound addition. To this end, the following conditional concept was programmatically applied in HELIOS to calculate % growth (% G) for each compound-treated well: % G=(T−V0)/V0))*100 when T<V0, and % G=(T−V0)/(V−V0)))*100 when T≥V0, where V0 is the viability level at time of compound addition, while V and T represent vehicle-control and compound-treated viability levels, respectively, at the end of the compound incubation. 100%, 0% and −100% signify absence of growth inhibition, growth stasis, and complete cell kill, respectively. Compound concentrations leading to half-maximal growth inhibition (GI50) and residual cell viability at the highest tested compound concentration (Data(cmax), expressed in percent) were routinely calculated.

Experiment [5] relates to NCI-H2052 Tet-On shYAP_2371 pLenti6 MCAT_Luc cells. The experiment in a line: Proliferation assay (resazurin/AlamarBlue), NCI-H2052. Format: cell-based. The settings on record: Homo sapiens; NCI-H2052, 72 hours.
Description: as §1, §2, §3, §4, §5
Background: Resazurin is reduced to fluorescent resorufin, in cell work by metabolically active cells.

The next experiment relates to MKN-45/Ubc-luc cells. The experiment in a line: Proliferation assay (resazurin/AlamarBlue), MKN-45. Format: cell-based. As to conditions: Homo sapiens; MKN-45, 72 hours.
Description: as §1
As a specificity control, MKN-45 cells were stably transduced with a Ubc-Luc reporter construct, in which constitutive expression of firefly luciferase is driven by the promoter of the ubiquitin C housekeeping gene.
as §2, §3, §4, §5

Experiment [6] has as its system MKN-45/Ubc-luc cells (unspecific inhibition of luciferase expression or activity). The experiment in a line: Reporter gene assay specificity control (Ubc-Luc), MKN-45. Format: cell-based. As to conditions: Homo sapiens; MKN-45/Ubc-luc specificity control, 24 hrs.
Description: as §1
As a specificity control, MKN-45 cells were stably transduced with a Ubc-Luc reporter construct, in which constitutive expression of firefly luciferase is driven by the promoter of the ubiquitin C housekeeping gene. The resulting cell line, MKN-45/Ubc-luc, was selected and maintained in growth medium (RPMI 1640 (Amimed Cat #1-41F01-I), 2 mM L-Glutamine (Amimed Cat #5-10K50-H), 10% fetal calf serum (Amimed Cat #2-01F30-I Lot K08815P), 1% MEM Non-essential amino acids (Amimed Cat #5-13K00-H), 1× Penicillin/Streptomycin (Amimed Cat #4-01F00-H)) containing 1 μg/ml blasticidin (Gibco Cat #A11139-03).
as §2
The ability of compounds to inhibit YAP-dependent transcription was assessed in NCI-H2052 Tet-On shYAP_2371 pLenti6 MCAT_Luc and SF268-MCAT_Luc, dox-i-shYAPLevy (Clone 13) cells, while specificity (lack of unspecific inhibition of luciferase expression or activity) was assessed in MKN-45/Ubc-luc cells. The individual cell lines were seeded at 2′500 cells/20 μl/well into white-wall, clear-bottom 384-well plates (Greiner, Cat #781098) and incubated over night at 37° C. prior to addition of serial compound dilutions as described above. Following incubation for 24 hrs at 37° C., compound-mediated modulation of reporter-gene activity was quantified 5 min after addition 20 μL […] BrightGlo (Promega Cat #E2620), by measuring luminescence intensity on a multi-mode plate-reader (TECAN) with an integration time of 100 ms.
as §4

Chain of Avi-humanTEAD4^217-434 / Cy5 labeled humanYAP^60-100 (Q15561 217-434): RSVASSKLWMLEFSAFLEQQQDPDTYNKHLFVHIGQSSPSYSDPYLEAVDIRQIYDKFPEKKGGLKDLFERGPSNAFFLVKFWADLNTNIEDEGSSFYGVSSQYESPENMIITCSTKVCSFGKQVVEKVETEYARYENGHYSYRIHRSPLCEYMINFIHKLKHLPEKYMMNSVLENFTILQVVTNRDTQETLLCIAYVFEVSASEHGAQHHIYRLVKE

As for `COc1ccc(OCC(=O)N2CCC(CC3CCN(C(=O)[C@H]4CC[C@H](NC[C@]5(c6ccccc6)Oc6cc(F)c(Cl)c(-c7c(C(N)=O)ccc(OC)c7F)c6[C@@H]5C)CC4)CC3)CC2)cc1N1CCC(=O)NC1=O` (atropisomer, axis not shown) [Example 30, 2-((2S,3S,4S)-5-chloro-2-((((1r,4S)-4-(4-((1-(2-(3-(2,4-dioxotetrahydropyrimidin-1(2H)-yl)-4-methoxyphenoxy)acetyl)piperidin-4-yl)methyl)piperidine-1-carbonyl)cyclohexyl)amino)methyl)-6-fluoro-3-methyl-2-phenyl-2,3-dihydrobenzofuran-4-yl)-3-fluoro-4-methoxybenzamide], the IC50 was 1.1 nM in experiment [1], 6.9 nM in experiment [2], 2.6 nM in experiment [3] and greater than 2000 nM in experiment [6]. In addition, the GI50 is 35 nM in experiment [4], 27 nM in experiment [5] and greater than 200 nM in the experiment on MKN-45/Ubc-luc cells.
For `COc1ccc(C(N)=O)c(-c2c(Cl)c(F)cc3c2[C@H](C)[C@@](CN[C@H]2CC[C@H](C(=O)N4CCC(C5CCN(C(=O)COc6cc(-c7scnc7C)ccc6CNC(=O)[C@@H]6C[C@@H](O)CN6C(=O)[C@@H](NC(=O)C6(F)CC6)C(C)(C)C)CC5)CC4)CC2)(c2ccccc2)O3)c1F` (atropisomer, axis not shown) [Example 43, (2S,4R)-N-(2-(2-(1′-((1S,4r)-4-((((2S,3S,4S)-4-(6-carbamoyl-2-fluoro-3-methoxyphenyl)-5-chloro-6-fluoro-3-methyl-2-phenyl-2,3-dihydrobenzofuran-2-yl)methyl)amino)cyclohexane-1-carbonyl)-[4,4′-bipiperidin]-1-yl)-2-oxoethoxy)-4-(4-methylthiazol-5-yl)benzyl)-1-((S)-2-(1-fluorocyclopropane-1-carboxamido)-3,3-dimethylbutanoyl)-4-hydroxypyrrolidine-2-carboxamide], the IC50 in experiment [1] is 2.3 nM; in experiment [2], 17 nM; in experiment [3], 8.7 nM; in experiment [6] it was greater than 2000 nM. Also, the GI50 in experiment [4] is 68 nM; in experiment [5], 73 nM; in the experiment on MKN-45/Ubc-luc cells, greater than 200 nM.
For `COc1ccc(C(N)=O)c(-c2c(Cl)c(F)cc3c2[C@H](C)[C@@](CNCCCCCc2cccc4c2CN(C2CCC(=O)NC2=O)C4=O)(c2ccccc2)O3)c1F` (stereo partly drawn) [Example 35, 2-((2S,3S,4S)-5-chloro-2-(((5-(2-(2,6-dioxopiperidin-3-yl)-1-oxoisoindolin-4-yl)pentyl)amino)methyl)-6-fluoro-3-methyl-2-phenyl-2,3-dihydrobenzofuran-4-yl)-3-fluoro-4-methoxybenzamide], the IC50 was determined as 23 nM in experiment [1], 32 nM in experiment [2], 7.2 nM in experiment [3] and 44 nM in experiment [6]. For the same compound, the results for the GI50 (in experiment [4]; in experiment [5]; with MKN-45/Ubc-luc cells) were less than 20 nM, 35 nM and 33 nM, respectively.
`COc1ccc(C(N)=O)c(-c2c(Cl)c(F)cc3c2[C@H](C)[C@@](CN[C@H]2CC[C@H](C(=O)N4CCC(CC5CCN(C(=O)COc6ccc(F)c(N7CCC(=O)NC7=O)c6)CC5)CC4)CC2)(c2ccccc2)O3)c1F` (atropisomer, axis not shown) [Example 29, 2-((2S,3S,4S)-5-chloro-2-((((1r,4S)-4-(4-((1-(2-(3-(2,4-dioxotetrahydropyrimidin-1(2H)-yl)-4-fluorophenoxy)acetyl)piperidin-4-yl)methyl)piperidine-1-carbonyl)cyclohexyl)amino)methyl)-6-fluoro-3-methyl-2-phenyl-2,3-dihydrobenzofuran-4-yl)-3-fluoro-4-methoxybenzamide]: the IC50 in experiment [1] is 0.64 nM; in experiment [2] it was 3.8 nM; in experiment [3], 3.3 nM; in experiment [6] it was greater than 2000 nM. In addition, the GI50 in experiment [4] was 17 nM; in experiment [5], 13 nM; in the experiment on MKN-45/Ubc-luc cells it was greater than 200 nM.
For the compound `COc1ccc(C(=O)N2CCC(OC3CN(C(=O)[C@H]4CC[C@H](NC[C@]5(c6ccccc6)Oc6cc(F)c(Cl)c(-c7c(C(N)=O)ccc(OC)c7F)c6[C@@H]5C)CC4)C3)CC2)cc1N1CCC(=O)NC1=O` (atropisomer, axis not shown) [Example 8, 2-((2S,3S,4S)-5-chloro-2-((((1r,4S)-4-(3-((1-(3-(2,4-dioxotetrahydropyrimidin-1(2H)-yl)-4-methoxybenzoyl)piperidin-4-yl)oxy)azetidine-1-carbonyl)cyclohexyl)amino)methyl)-6-fluoro-3-methyl-2-phenyl-2,3-dihydrobenzofuran-4-yl)-3-fluoro-4-methoxybenzamide], the IC50 in experiment [1] is 3.1 nM; in experiment [2] it was 120 nM; in experiment [3], 1.6 nM; in experiment [6], greater than 20000 nM. In addition, the GI50 was 120 nM in experiment [4], 310 nM in experiment [5] and greater than 20000 nM in the experiment on MKN-45/Ubc-luc cells.
As for `COc1ccc(C(N)=O)c(-c2c(Cl)c(F)cc3c2[C@H](C)[C@@](CN[C@H]2CC[C@H](C(=O)N4CCC(CC5CCN(C(=O)COc6ccc(Cl)c(N7CCC(=O)NC7=O)c6)CC5)CC4)CC2)(c2ccccc2)O3)c1F` (atropisomer, axis not shown) [Example 28, 2-((2S,3S,4S)-5-chloro-2-((((1r,4S)-4-(4-((1-(2-(4-chloro-3-(2,4-dioxotetrahydropyrimidin-1(2H)-yl)phenoxy)acetyl)piperidin-4-yl)methyl)piperidine-1-carbonyl)cyclohexyl)amino)methyl)-6-fluoro-3-methyl-2-phenyl-2,3-dihydrobenzofuran-4-yl)-3-fluoro-4-methoxybenzamide], the IC50 in experiment [1] was 0.92 nM; in experiment [2], 4.4 nM; in experiment [3], 2.7 nM; in experiment [6], greater than 2000 nM. Further, the GI50 in experiment [4] was 31 nM; in experiment [5], 16 nM; in the experiment on MKN-45/Ubc-luc cells, greater than 2000 nM.

By IC50 is commonly meant the point on the concentration scale where inhibition reaches its midpoint. A low value points to greater potency in that assay. A word on the GI50: it is the concentration at which growth is held to half of that of the control. High values mean less potent growth inhibition, low ones more potent growth inhibition.

These data come from patent US20240382600A1, “BIFUNCTIONAL DEGRADERS COMPRISING A TEAD BINDER” (Novartis AG, priority 2021, published 2024).
